Laboratory results as given in DBAASP.
≈ marks a conversion by molar mass, not a printed value. Values belong to the compound of their own block, whether it stands above or below them.

Tests used:
Assay in all cases: ≥ marks a high value that may be exact or a test limit, other limits are often not marked, values filed in µg/mL are converted to µM
[1] = tested on: Legionella pneumophila Lens
[2] = tested on: Staphylococcus aureus JC114
[3] = tested on: Escherichia coli JC113
[4] = tested on: Pseudomonas aeruginosa JC115
[5] = tested on: Bacillus subtilis JC443
[6] = tested on: Staphylococcus aureus 3399
[7] = tested on: Pseudomonas aeruginosa 3241
[8] = tested on: Staphylococcus aureus ATCC 25923
[9] = tested on: Pseudomonas aeruginosa ATCC 15692
[10] = tested on: Pseudomonas aeruginosa CCARM 2073
[11] = tested on: Salmonella typhimurium KCTC 1926
[12] = tested on: Staphylococcus epidermidis KCTC 1917
[13] = tested on: Listeria monocytogenes KCTC 19111
[14] = tested on: Staphylococcus aureus CCARM 3125
[15] = tested on: Pseudomonas aeruginosa CCARM 2075
[16] = tested on: Staphylococcus aureus CCARM 3709
[17] = tested on: Pseudomonas aeruginosa 4007
[18] = tested on: Staphylococcus aureus 3518
[19] = tested on: Escherichia coli ATCC 25922
[20] = tested on: Enterococcus faecalis ATCC 51575
[21] = tested on: Acinetobacter baumannii KCCM 1053
[22] = tested on: Escherichia coli KCTC 1682
[23] = tested on: Enterococcus faecalis KCCM 11814
[24] = tested on: Staphylococcus aureus KCCM 40510
[25] = tested on: Acinetobacter baumannii ATCC BAA-1605
[26] = tested on: Bacillus subtilis KCTC 3068
[27] = tested on: Pseudomonas aeruginosa CCARM 2180
[28] = tested on: Staphylococcus aureus KCTC 1621
[29] = tested on: Pseudomonas aeruginosa KCTC 1637
[30] = tested on: Streptococcus agalactiae BNCC 185941
[31] = tested on: Escherichia coli K88
[32] = tested on: Pseudomonas aeruginosa PAO1
[33] = tested on: Salmonella enterica subsp. enterica serovar Pullorum C79-13
[34] = tested on: Lacticaseibacillus rhamnosus 1.0911
[35] = tested on: Staphylococcus aureus ATCC 29213
[36] = tested on: Lacticaseibacillus rhamnosus 1.9021
[37] = tested on: Salmonella enterica subsp. enterica serovar Typhimurium ATCC 14028
[38] = tested on: Salmonella enterica subsp. enterica serovar Choleraesuis CVCC 503
[39] = tested on: Staphylococcus aureus ATCC 43300
[40] = tested on: Lacticaseibacillus rhamnosus 1.0936
[41] = tested on: Staphylococcus epidermidis ATCC 12228
[42] = tested on: Pseudomonas aeruginosa ATCC 27853
[43] = tested on: Escherichia coli O157:H7 CICC 21530
[44] = tested on: Lacticaseibacillus rhamnosus 8014
[45] = tested on: Candida tropicalis 092422

SMILES: CC[C@H](C)[C@H](NC(=O)[C@H](CC(C)C)NC(=O)CNC(=O)[C@H](CCCCN)NC(=O)[C@@H](NC(=O)[C@@H](NC(=O)[C@H](CCC(=O)O)NC(=O)[C@H](Cc1ccccc1)NC(=O)[C@@H](NC(=O)[C@H](CCCCN)NC(=O)[C@H](C)NC(=O)[C@@H](NC(=O)[C@@H](NC(=O)[C@H](CC(=O)O)NC(=O)[C@H](C)NC(=O)[C@@H](N)CCSC)C(C)C)[C@@H](C)CC)[C@@H](C)CC)[C@@H](C)CC)C(C)C)C(=O)N[C@@H](CC(=O)O)C(=O)N[C@@H](CCC(N)=O)C(=O)N[C@@H](Cc1ccccc1)C(=O)N[C@H](C(=O)N[C@@H](CCC(N)=O)C(=O)N[C@@H](CCCCN)C(=O)O)[C@@H](C)O [MADVIAKIFEIVKGLIDQFTQK]
MIC [1]: 1.85 µM (≈ 4.64 µg/mL)

SMILES: NC(=O)[C@H](Cc1ccccc1)NC(=O)[C@@H]1CSSC[C@H](NC(=O)[C@H](Cc2ccccc2)NC(=O)[C@H](Cc2ccccc2)NC(=O)[C@@H](N)Cc2ccccc2)C(=O)N[C@@H](CO)C(=O)N[C@@H](CCCN=C(N)N)C(=O)N1 [FFFCSRCF]
MIC [2]: ≥ 180 µM
MIC [3]: ≥ 152 µM
MIC [4]: ≥ 157 µM
MIC [5]: ≥ 171 µM

SMILES: CC(C)C[C@H](NC(=O)[C@H](Cc1c[nH]c2ccccc12)NC(=O)[C@H](CCCCN)NC(=O)[C@H](CCCCN)NC(=O)[C@H](CC(C)C)NC(=O)[C@H](Cc1c[nH]c2ccccc12)NC(=O)[C@H](CCCCN)NC(=O)[C@H](CCCCN)NC(=O)[C@H](CC(C)C)NC(=O)[C@H](Cc1c[nH]c2ccccc12)NC(=O)[C@@H](N)CCCCN)C(=O)N[C@@H](CCCCN)C(N)=O [KWLKKWLKKWLK]
MIC [6]: 2 µM (≈ 3.37 µg/mL)
MIC [7]: 2 µM (≈ 3.37 µg/mL)
MIC [8]: 2 µM (≈ 3.37 µg/mL)
MIC [9]: 2 µM (≈ 3.37 µg/mL)
MIC [10]: 2 µM (≈ 3.37 µg/mL)
MIC [11]: 2 µM (≈ 3.37 µg/mL)
MIC [12]: 1 µM (≈ 1.68 µg/mL)
MIC [13]: 2 µM (≈ 3.37 µg/mL)
MIC [14]: 2 µM (≈ 3.37 µg/mL)
MIC [15]: 1 µM (≈ 1.68 µg/mL)
MIC [16]: 2 µM (≈ 3.37 µg/mL)
MIC [17]: 2 µM (≈ 3.37 µg/mL)
MIC [18]: 2 µM (≈ 3.37 µg/mL)
MIC [19]: 1 µM (≈ 1.68 µg/mL)

SMILES: CC(C)C[C@H](NC(=O)CNC(=O)[C@H](CC(C)C)NC(=O)[C@H](Cc1c[nH]c2ccccc12)NC(=O)[C@H](CC(C)C)NC(=O)CNC(=O)[C@H](CC(C)C)NC(=O)[C@H](CCCCN)NC(=O)[C@@H](N)CCCCN)C(=O)N[C@@H](CCCCN)C(=O)N[C@@H](CCCCN)C(N)=O [KKLGLWLGLKK]
MIC [30]: ≥ 128 µM
MIC [31]: 8 µM (≈ 10.3 µg/mL)
MIC [32]: 64 µM (≈ 82.1 µg/mL)
MIC [33]: 8 µM (≈ 10.3 µg/mL)
MIC [34]: ≥ 128 µM
MIC [35]: > 128 µM
MIC [36]: ≥ 128 µM
MIC [37]: 64 µM (≈ 82.1 µg/mL)
MIC [38]: ≥ 64 µM
MIC [39]: > 128 µM
MIC [40]: ≥ 128 µM
MIC [41]: > 128 µM
MIC [42]: 32 µM (≈ 41 µg/mL)
MIC [43]: 8 µM (≈ 10.3 µg/mL)
MIC [44]: ≥ 128 µM

More lines, now with the values ahead:

MIC [20]: ≥ 64 µM
MIC [21]: ≥ 64 µM
MIC [22]: 8 µM (≈ 11 µg/mL)
MIC [11]: ≥ 64 µM
MIC [23]: ≥ 64 µM
MIC [24]: ≥ 64 µM
MIC [25]: ≥ 64 µM
MIC [12]: ≥ 32 µM
MIC [26]: ≥ 64 µM
MIC [27]: ≥ 64 µM
MIC [28]: ≥ 64 µM
MIC [29]: ≥ 64 µM
SMILES: CC[C@H](C)[C@@H]1NC(=O)[C@H](CCCCN)NC(=O)[C@@H](NC(=O)[C@H](CC(C)C)NC(=O)[C@@H](N)CCCCN)CSSC[C@@H](C(=O)N[C@@H](CCCCN)C(=O)O)NC(=O)[C@H](C(C)C)NC(=O)[C@H](CCCCN)NC(=O)[C@H]([C@@H](C)CC)NC(=O)[C@H](C(C)C)NC(=O)[C@H](C(C)C)NC1=O [KLCKIVVIKVCK]

MIC [45]: ≥ 71 µM
SMILES: CC[C@H](C)[C@H](NC(=O)[C@H](C)NC(=O)[C@@H]1CCCN1C(=O)[C@@H](NC(=O)[C@@H](N)Cc1ccccc1)C(C)C)C(=O)N[C@@H](CC(C)C)C(=O)N[C@H]1CSSC[C@@H](C(=O)O)NC(=O)[C@H]([C@@H](C)O)NC(=O)[C@H](CCCCN)NC(=O)[C@H](CC(C)C)NC(=O)[C@H]([C@@H](C)CC)NC(=O)[C@H](CO)NC1=O [FVPAILCSILKTC]
